This note sets out measurements from ChEMBL document CHEMBL1201862, “PubChem BioAssay data set” (2004).

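Values below derive from 48-hour exposures of cells grown in 96-well plates, with endpoints linearly interpolated between the two concentrations bracketing the appropriate inhibition level. GI50 marks 50% less growth.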 The source made the active and inactive calls. Cut-off read from the data, not from the text of the source: active = GI50 up to about 1.1 µM and inactive = higher. A value given as a limit tells only on which side of the number the result lay.

Among the test systems are BT-549; HCT-15; SR; U-251; HCT-116; T47D; MDA-MB-435; DU-145; NCI-H23; PC-3; K562; COLO 205; Malme-3M; SNB-19; ACHN; Hs-578T; UACC-257; NCI-H226; NCI-H522; MDA-MB-231.
Holding throughout (test): DTP human tumour cell line panel, 48 h

Regarding `O=C1NC(=O)[C@@]2(CC[C@@H](O)C2)c2ccncc21` [SESBANINE], the GI50 – broadly, the concentration at which growth is held to half of that of the control – with BT-549 was > 100 µM (inactive); in the test with HCT-15 it was more than 100 µM; in the test with SR, > 100 µM (inactive); in the test with U-251, > 100 µM (inactive); in the test on HCT-116, > 100 µM (inactive); with T47D, > 100 µM (inactive). For the same compound, the GI50 with MDA-MB-435, in the test on DU-145, with NCI-H23, in the test on PC-3, with K562 and with COLO 205 was > 100 µM (inactive) in each case. The GI50 in the test on Malme-3M, with SNB-19, in the test with ACHN, with Hs-578T, in the test with UACC-257 and with NCI-H226 was > 100 µM (inactive) throughout. Moreover, the GI50 in the test with NCI-H522 and with MDA-MB-231 was > 100 µM (inactive) throughout.
In the case of `O=C(N/N=C\c1ccc([N+](=O)[O-])cc1)Nc1ccc2ccccc2c1`, the GI50 is 45.4 µM (inactive) in the test with BT-549; 38.6 µM in the test on HCT-15; 20.6 µM (inactive) with SR; 21.4 µM (inactive) in the test with U-251; 24.3 µM (inactive) with HCT-116; 56.1 µM (inactive) in the test with T47D. For the same compound, the GI50 in the test on MDA-MB-435 was 34.2 µM (inactive); in the test on DU-145 it was 71.3 µM (inactive); in the test with NCI-H23, 58.3 µM (inactive); with PC-3, 44.8 µM (inactive); in the test on K562 it was 73.6 µM (inactive); with COLO 205, 24.7 µM (inactive). For the same compound, the GI50 is 22.5 µM (inactive) with Malme-3M; 52.1 µM (inactive) with SNB-19; 51.5 µM (inactive) in the test on ACHN; 26 µM (inactive) with Hs-578T; 44.3 µM (inactive) in the test on UACC-257; 32.6 µM (inactive) in the test on NCI-H226. Besides, the GI50 in the test with NCI-H522 was 24.6 µM (inactive); in the test on MDA-MB-231, 26.1 µM (inactive).
As for `CN(C)CCCc1c2ccccc2nc2ccc(Cl)cc12`, the GI50 was 18.6 µM (inactive) in the test on BT-549; 30.5 µM with HCT-15; 18.5 µM (inactive) with SR; 12.2 µM (inactive) in the test on U-251; 10.9 µM (inactive) with HCT-116; 36.5 µM (inactive) in the test with T47D. The GI50 was 13.3 µM (inactive) in the test with MDA-MB-435; 21.4 µM (inactive) with DU-145; 30.3 µM (inactive) with NCI-H23; 16.8 µM (inactive) in the test with PC-3; 19.1 µM (inactive) with K562; 14.9 µM (inactive) with COLO 205. The GI50 was 15.4 µM (inactive) in the test on Malme-3M; 12 µM (inactive) with SNB-19; 14.9 µM (inactive) in the test with ACHN; 16.5 µM (inactive) with Hs-578T; 13.3 µM (inactive) in the test with UACC-257; 24.2 µM (inactive) in the test with NCI-H226. Moreover, the GI50 was 14.2 µM (inactive) in the test on NCI-H522 and 16.6 µM (inactive) with MDA-MB-231.
Turning to `COc1ccc(C2=CN3CCC[C@H]3C=C2c2cc(O)c(OC)c(OC)c2)cc1OC`, the GI50 was 0.0207 µM (active) in the test with BT-549; 0.00362 µM in the test with HCT-15; 0.00394 µM (active) with SR; 0.00416 µM (active) in the test on U-251; 0.00198 µM (active) with HCT-116; 0.00371 µM (active) in the test on T47D. Moreover, the GI50 was 0.00284 µM (active) in the test on MDA-MB-435; 0.00398 µM (active) in the test on DU-145; 0.00378 µM (active) in the test with NCI-H23; 0.0124 µM (active) in the test on PC-3; 0.00339 µM (active) in the test on K562; 0.0115 µM (active) in the test on COLO 205. The 50% growth inhibitory concentration (GI50) in the test with Malme-3M is 0.00421 µM (active); in the test on SNB-19 it was 0.00309 µM (active); with ACHN, 0.00302 µM (active); with Hs-578T it was 0.00539 µM (active); with UACC-257 it was 0.00646 µM (active); in the test with NCI-H226, 0.00376 µM (active). Further, the GI50 is 0.00418 µM (active) in the test with NCI-H522 and 0.00631 µM (active) with MDA-MB-231.
Consider `O=[N+]([O-])c1cccc2nc3ccccc3c(NCCCn3ccnc3[N+](=O)[O-])c12`, for which the GI50 in the test with BT-549 was < 0.0001 µM (active); in the test with HCT-15 it was 0.000131 µM; with SR, 0.02 µM (active); in the test on U-251, 0.000213 µM (active); in the test with HCT-116, < 0.0001 µM (active); in the test with T47D it was 0.0407 µM (active). Besides, the GI50 is < 0.0001 µM (active) in the test on MDA-MB-435; < 0.0001 µM (active) in the test with DU-145; 0.0003 µM (active) with NCI-H23; 0.000598 µM (active) with PC-3; < 0.0001 µM (active) in the test with K562; 0.000109 µM (active) in the test on COLO 205. For the same compound, the GI50 in the test on Malme-3M is 0.00023 µM (active); in the test with SNB-19, 0.000366 µM (active); in the test on ACHN, 0.000161 µM (active); in the test on Hs-578T it was 0.0169 µM (active); in the test on UACC-257, 0.0039 µM (active); in the test on NCI-H226 it was 0.000245 µM (active). Besides, the GI50 is 0.00046 µM (active) in the test on NCI-H522 and 0.000168 µM (active) with MDA-MB-231.
Turning to `C=C1CC(Cn2cc(Br)c(=O)[nH]c2=O)(c2ccc(-c3ccccc3)cc2)OC1=O` (stereo not given), the GI50 was 1.66 µM (inactive) with BT-549; 1.61 µM in the test with HCT-15; 0.32 µM (active) in the test on SR; 5.92 µM (inactive) in the test on U-251; 0.301 µM (active) with HCT-116; 2 µM (inactive) with T47D. For the same compound, the GI50 is 1.35 µM (inactive) in the test on MDA-MB-435; 1.66 µM (inactive) in the test with DU-145; 0.993 µM (active) in the test with NCI-H23; 1.55 µM (inactive) in the test on PC-3; 0.2 µM (active) with K562; 0.621 µM (active) with COLO 205. Further, the GI50 was 1.56 µM (inactive) with Malme-3M; 12.6 µM (inactive) in the test on SNB-19; 1.83 µM (inactive) in the test with ACHN; 2.74 µM (inactive) in the test on Hs-578T; 0.836 µM (active) with UACC-257; 1.83 µM (inactive) with NCI-H226. Also, the GI50 in the test with NCI-H522 is 0.655 µM (active); with MDA-MB-231, 3.08 µM (inactive).
With `NCC1OC(n2cnc3c(=O)[nH]c(N)nc32)C(O)C1O` (stereo not given), the GI50 with BT-549 is > 100 µM (inactive); with HCT-15, more than 100 µM; in the test with SR, < 0.01 µM (active); in the test on U-251 it was > 100 µM (inactive); with HCT-116 it was > 100 µM (inactive); in the test on T47D, 97.1 µM (inactive). For the same compound, the GI50 in the test with MDA-MB-435 was > 100 µM (inactive); in the test on DU-145 it was > 100 µM (inactive); with NCI-H23, > 100 µM (inactive); in the test on PC-3, > 100 µM (inactive); in the test on K562 it was 1 µM (active); in the test with COLO 205 it was > 100 µM (inactive). Also, the GI50 in the test on Malme-3M, in the test with SNB-19, in the test with ACHN, in the test with Hs-578T, in the test on UACC-257 and in the test on NCI-H226 was > 100 µM (inactive) in each case. Moreover, the GI50 in the test on NCI-H522 and in the test with MDA-MB-231 was > 100 µM (inactive) throughout.
Consider `O=c1c2nn3c(=O)n(-c4ccccc4)c(=O)c3nn2c(=O)n1-c1ccccc1`, for which the GI50 in the test on BT-549 is > 100 µM (inactive); with HCT-15, more than 100 µM; in the test with SR, > 100 µM (inactive); in the test with U-251 it was > 100 µM (inactive); with HCT-116, > 100 µM (inactive); with T47D, > 100 µM (inactive). Besides, the GI50 in the test on MDA-MB-435, in the test on DU-145, in the test with NCI-H23, in the test with PC-3, in the test with K562 and with COLO 205 was > 100 µM (inactive) in each case. The GI50 in the test with Malme-3M, with SNB-19, in the test with ACHN, in the test on Hs-578T, in the test on UACC-257 and in the test on NCI-H226 was > 100 µM (inactive) each time. For the same compound, the GI50 in the test on NCI-H522 and in the test with MDA-MB-231 was > 100 µM (inactive) in each case.
Turning to `CC(=O)NCCSC(=O)c1ccccc1`, the concentration for 50% growth inhibition (GI50) was 0.946 µM (active) in the test on BT-549; 0.156 µM in the test with HCT-15; 0.0146 µM (active) in the test with SR; 0.166 µM (active) in the test with U-251; 0.0488 µM (active) in the test with HCT-116; 0.197 µM (active) in the test with T47D. For the same compound, the GI50 in the test with MDA-MB-435 was 0.18 µM (active); in the test on DU-145 it was 0.199 µM (active); in the test on NCI-H23, 0.0559 µM (active); in the test with PC-3, 0.525 µM (active); with K562, 0.285 µM (active); in the test on COLO 205, 0.158 µM (active). Also, the GI50 in the test on Malme-3M is 0.119 µM (active); in the test with SNB-19, 0.916 µM (active); in the test on ACHN, < 0.0195 µM (active); in the test on Hs-578T it was 0.479 µM (active); with UACC-257, 0.19 µM (active); in the test on NCI-H226, 0.116 µM (active). The GI50 with NCI-H522 was 0.215 µM (active); in the test with MDA-MB-231, 1.98 µM (inactive).
For `O=C1C/C(=N/c2ccc(Cl)cc2)C(c2ccccc2)N1c1ccccc1` (stereo not given), the GI50 was 5.28 µM (inactive) in the test with BT-549; 5.92 µM in the test with HCT-15; 5.43 µM (inactive) in the test on SR; 32.7 µM (inactive) with U-251; 8.89 µM (inactive) with HCT-116; 1.38 µM (inactive) in the test on T47D. The GI50 was 2.15 µM (inactive) in the test with MDA-MB-435; 6.61 µM (inactive) in the test on DU-145; 10 µM (inactive) in the test on NCI-H23; 3.28 µM (inactive) in the test on PC-3; 1.32 µM (inactive) in the test on K562; 3.66 µM (inactive) in the test with COLO 205. The GI50 is 19.5 µM (inactive) in the test on Malme-3M; 19.9 µM (inactive) with SNB-19; 6.43 µM (inactive) in the test on ACHN; 6.12 µM (inactive) in the test with Hs-578T; 17.4 µM (inactive) in the test on UACC-257; 10.1 µM (inactive) with NCI-H226. For the same compound, the GI50 in the test with NCI-H522 is 1.64 µM (inactive); in the test with MDA-MB-231, 7.21 µM (inactive).
